Measured values: patent US11338025B2, “Vaccine therapy for treatment of endometrial and ovarian cancer” (The Henry M. Jackson Foundation for the Advancement of …, priority 2016, dated 2022)
Values belong to the substance of their own block, whether it stands above or below them. Ends that are not written are not given here.

Legend:
[1] = test system: tumor-associated lymphocyte (TAL); conditions: previous studies (Peoples et al. 1998); cited from earlier work
[2] = Local and systemic toxicity (NCI CTCAE v4.03) of E39+GM-CSF vaccination; format: in vivo, human
Procedure: Standard local and systemic toxicities were collected and graded per the National Cancer Institute Common Terminology Criteria for Adverse Events, v4.03 toxicity scale. For the vaccine series (one vaccine/month for six months), patients were monitored closely for one hour after vaccine inoculation with questioning, serial exams and vital signs every 15 minutes to observe for a hypersensitivity reaction. Systemic toxicity and inoculation site local reactions were also determined after 48-72 hours.

[3] = Local reactions (LR) 48-72 hours after booster; conditions: 500 mcg peptide + 250 mcg GM-CSF
From the text: Therefore, to assess the use of the attenuated E39′ peptide as a booster, E39-vaccinated patients described in Example 1 were randomized to receive either E39 or E39′ as a booster to determine the effect on long-term E39-specific immunity. Patients in the VG received six intradermal E39 injections as described in Example 1 as a primary vaccination schedule (PVS). At six months (B1) and at twelve months (B2) after completion of the PVS, patients received either 500 mcg of E39′ and 250 mcg GM-CSF or 500 mcg E39 and 250 mcg of GM-CSF as a booster.
Local reactions (LR) were recorded 48-72 hours after each booster. Immune response was determined by measurement of E39 specific CTL levels using a Dextramer reagents in accordance with the manufacturer's instructions (Immudex Limited, Copenhagen, Denmark) as previously described (e.g., Tario et al. Cytometry B Clin. Cytom. 2015; 88B:6-20; Baba J. Transl Med. 2010; 8:84), at RO (baseline pre-vaccination), RC1 (1 month after completion of PVS), RC6 (6 months after completion of PVS and before booster), RC7 (1 month after booster) and RC12 (6 months after booster and 12 months after completion of PVS).

Substance: E41: FRα-derived immunogenic peptide (FRα 245-253) of previous studies (LLSLALMLL; UniProt P15328 245-253, looked up, fragment)
effect on TAL proliferation and anti-tumor function [1]: capable of enhancing tumor-associated lymphocyte (TAL) proliferation and anti-tumor function

Substance: EIWTHSYKV [E39, EIWTHSYKV]
tolerability of the vaccine ([2]; E39+GM-CSF, disease-free endometrial and ovarian cancer patients): well tolerated | Local and systemic toxicities ([2]; in vivo): mild | patients experiencing grade 3 toxicity ([2]; in vivo): 1 patient

average LR ([3]; B1 booster (6 months after PVS)): 79.7±14.0 mm | average LR ([3]; B2 booster (12 months after PVS)): 74.1±11.5 mm
Substance: EIWTFSTKV [E39′, EIWTFSTKV]
